The results in this text go back to patent publication US11780830B2, “Triazolone derivatives or salts thereof and pharmaceutical compositions comprising the same” (YUHAN CORPORATION, priority 2018, dated 2023).

Holding throughout (type): biochemical
In assay [1] the target is T1, recombinant human MAO-B (monoamine oxidase-B) (Homo sapiens, UniProt P27338).
T1 construct: purchased Sigma-Aldrich
T1 sequence (P27338 1-520): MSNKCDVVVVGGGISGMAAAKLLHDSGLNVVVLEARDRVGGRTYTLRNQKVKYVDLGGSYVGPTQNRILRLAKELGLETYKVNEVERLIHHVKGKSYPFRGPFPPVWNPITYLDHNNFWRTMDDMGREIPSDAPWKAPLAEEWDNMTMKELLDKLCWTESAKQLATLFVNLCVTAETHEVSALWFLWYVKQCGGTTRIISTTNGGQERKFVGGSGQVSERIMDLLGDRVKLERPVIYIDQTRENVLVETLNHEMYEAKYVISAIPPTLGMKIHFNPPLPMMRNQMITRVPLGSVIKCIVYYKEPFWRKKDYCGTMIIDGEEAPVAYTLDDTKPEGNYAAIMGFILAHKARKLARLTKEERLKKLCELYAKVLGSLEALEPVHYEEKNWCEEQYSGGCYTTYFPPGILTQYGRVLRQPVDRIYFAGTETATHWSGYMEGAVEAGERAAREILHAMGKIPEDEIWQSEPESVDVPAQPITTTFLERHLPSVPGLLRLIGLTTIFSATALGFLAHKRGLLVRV
Description: Activity on recombinant human MAO-B, method similar to the VAP-1 assay. To be noted: substrate 1 mM benzylamine; read-out: Inhibitory Activity (IC50, nM) MAO-B. The gist of the method: (§1)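 8-point, 1:3 dose-response, four-parameter logistic IC50 from reduction in fluorescence rate versus DMSO control. HRP/Amplex Red detection of H2O2 (ex 544, em 590 nm) after 30 min, 37 °C compound–enzyme preincubation in pH 7.4 phosphate buffer. MAO-A substrate: 0.5 mM tyramine; MAO-B: 1 mM benzylamine.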

The next assay addresses T2, recombinant human VAP-1 (Homo sapiens, UniProt Q16853).
T2 construct: purchased R&D systems
T2 sequence (Q16853 1-763): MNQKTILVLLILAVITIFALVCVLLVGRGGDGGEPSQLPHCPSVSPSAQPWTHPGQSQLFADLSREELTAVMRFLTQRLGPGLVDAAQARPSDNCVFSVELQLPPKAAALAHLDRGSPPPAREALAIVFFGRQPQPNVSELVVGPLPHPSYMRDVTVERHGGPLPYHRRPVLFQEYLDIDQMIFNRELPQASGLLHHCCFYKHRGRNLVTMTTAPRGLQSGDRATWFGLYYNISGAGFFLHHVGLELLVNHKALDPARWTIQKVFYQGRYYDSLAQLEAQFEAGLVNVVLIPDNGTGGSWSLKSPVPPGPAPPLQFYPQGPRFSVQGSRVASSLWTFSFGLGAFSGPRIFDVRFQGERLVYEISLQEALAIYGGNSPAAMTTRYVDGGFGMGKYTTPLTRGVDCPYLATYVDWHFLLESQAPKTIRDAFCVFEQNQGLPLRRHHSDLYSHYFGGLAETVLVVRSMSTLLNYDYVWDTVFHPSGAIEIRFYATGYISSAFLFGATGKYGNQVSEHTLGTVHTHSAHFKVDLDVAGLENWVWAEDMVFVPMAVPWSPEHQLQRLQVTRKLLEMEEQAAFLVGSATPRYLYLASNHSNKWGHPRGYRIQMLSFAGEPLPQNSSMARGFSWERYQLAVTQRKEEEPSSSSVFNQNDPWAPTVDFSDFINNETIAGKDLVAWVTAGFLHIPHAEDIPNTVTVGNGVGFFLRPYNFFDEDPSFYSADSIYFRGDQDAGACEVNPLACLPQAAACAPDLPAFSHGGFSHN
As to the kind of experiment: Activity on recombinant human VAP-1, HRP-coupled Amplex Red hydrogen peroxide assay. The conditions noted are these: substrate 1 mM benzylamine; compound incubated with enzyme at 37° C. for 30 minutes; pH 7.4; read-out: Inhibitory Activity (IC50, nM) human VAP-1. The gist of the method:
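Compounds were preincubated with purified enzyme in 50 mM sodium phosphate pH 7.4 at 37 °C for 30 min, then 200 uM Amplex Red, 1 mM benzylamine and 1 U/mL HRP were added. Resorufin fluorescence (ex 544/em 590 nm) was followed over 1-2 h; IC50 came from 4-parameter fits of signal-rate inhibition.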

Assay [2] has as its target T3, recombinant human MAO-A (monoamine oxidase-A) (Homo sapiens, UniProt P21397).
T3 construct: purchased Sigma-Aldrich
T3 sequence (P21397 1-527): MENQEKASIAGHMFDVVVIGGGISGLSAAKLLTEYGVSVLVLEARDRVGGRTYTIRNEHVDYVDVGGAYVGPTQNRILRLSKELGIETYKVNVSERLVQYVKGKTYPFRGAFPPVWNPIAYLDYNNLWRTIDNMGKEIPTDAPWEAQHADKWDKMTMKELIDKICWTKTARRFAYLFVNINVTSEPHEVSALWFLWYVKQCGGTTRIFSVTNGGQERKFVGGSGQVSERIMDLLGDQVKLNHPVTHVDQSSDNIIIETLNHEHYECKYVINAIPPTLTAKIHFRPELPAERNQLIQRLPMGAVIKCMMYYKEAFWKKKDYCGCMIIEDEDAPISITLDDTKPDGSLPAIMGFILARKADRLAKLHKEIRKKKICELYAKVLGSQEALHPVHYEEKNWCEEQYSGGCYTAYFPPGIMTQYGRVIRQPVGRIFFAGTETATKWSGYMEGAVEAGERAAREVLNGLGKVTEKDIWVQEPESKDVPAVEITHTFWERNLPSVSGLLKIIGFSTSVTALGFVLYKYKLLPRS
As to the kind of experiment: Activity on recombinant human MAO-A, method similar to the VAP-1 assay. The conditions noted are these: substrate 0.5 mM tyramine; read-out: Inhibitory Activity (IC50, nM) MAO-A. In a few lines:
as §1

For assay [3], the target named is T4, recombinant human DAO (diamine oxidase) (Homo sapiens, UniProt P19801).
T4 construct: purchased R&D systems
T4 sequence (P19801 20-751): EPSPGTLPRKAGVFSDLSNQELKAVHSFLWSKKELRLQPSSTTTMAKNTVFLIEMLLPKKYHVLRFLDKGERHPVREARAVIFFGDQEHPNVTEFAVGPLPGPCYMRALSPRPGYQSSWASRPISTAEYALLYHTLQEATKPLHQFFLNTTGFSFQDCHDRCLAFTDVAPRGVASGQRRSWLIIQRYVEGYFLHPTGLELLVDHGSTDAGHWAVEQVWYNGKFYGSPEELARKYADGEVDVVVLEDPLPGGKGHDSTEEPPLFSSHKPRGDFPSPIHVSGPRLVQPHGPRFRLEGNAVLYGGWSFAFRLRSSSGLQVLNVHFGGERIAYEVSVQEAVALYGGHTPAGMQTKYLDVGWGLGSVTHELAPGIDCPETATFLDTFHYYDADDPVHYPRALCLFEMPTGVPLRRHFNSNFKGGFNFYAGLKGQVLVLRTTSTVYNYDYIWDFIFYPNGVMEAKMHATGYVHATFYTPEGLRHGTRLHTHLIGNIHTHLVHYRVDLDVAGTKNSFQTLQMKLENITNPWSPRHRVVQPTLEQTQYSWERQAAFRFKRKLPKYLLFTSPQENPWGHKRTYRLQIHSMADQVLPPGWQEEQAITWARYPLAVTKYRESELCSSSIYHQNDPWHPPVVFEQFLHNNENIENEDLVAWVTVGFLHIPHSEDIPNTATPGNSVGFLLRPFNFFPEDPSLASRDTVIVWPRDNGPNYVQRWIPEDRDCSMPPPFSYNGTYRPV
As to the kind of experiment: Activity on recombinant human DAO, method similar to the VAP-1 assay. The conditions noted are these: substrate 1 mM putrescine; read-out: Inhibitory Activity (IC50, nM) DAO. In a few lines:
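Inhibition of recombinant human diamine oxidase (DAO, R&D systems) was assessed by the same approach as the VAP-1 assay, using 1 mM putrescine as substrate. Hydrogen peroxide formed was detected through an HRP-coupled Amplex Red reaction yielding fluorescent resorufin, read at 544 nm excitation and 590 nm emission. IC50 values came from four-parameter logistic fitting in GraphPad Prism.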

Each structure is given as a SMILES string. Counter-ions that a name gives are not always drawn. Where only a bound is given, the exact number is not on record here.

As a reminder, the IC50 is the concentration at which inhibition is half-maximal. For `NC/C(=C\F)Cn1ncn(Cc2ccc(-c3c[nH]c4ncccc34)s2)c1=O` [Example 115, 2-[(2E)-2-(aminomethyl)-3-fluoroprop-2-en-1-yl]-4-[5-(1H-pyrrolo[2,3-b]pyridin-3-yl)thiophen-2-yl]methyl-2,4-dihydro-3H-1,2,4-triazol-3-one hydrochloride], the IC50 was 120 nM in assay [1], 0.7 nM on recombinant human VAP-1, greater than 100000 nM in assay [2] and 860 nM in assay [3].
The like results for `NC/C(=C\F)Cn1ncn(Cc2ccc(-c3ccc4oc(=O)[nH]c4c3)s2)c1=O` [Example 72, 5-[5-(1-[(2E)-2-(aminomethyl)-3-fluoroprop-2-en-1-yl]-5-oxo-1,5-dihydro-4H-1,2,4-triazol-4-ylmethyl)thiophen-2-yl]-1,3-benzooxazol-2(3H)-one hydrochloride] were, in that order, less than 10 nM, 0.4 nM, no less than 100000 nM and 230 nM.
For `NC/C(=C\F)Cn1ncn(Cc2ccc(-c3ccc(C(=O)N4CCOCC4)cc3)s2)c1=O` [Example 27, 2-[(2E)-2-(aminomethyl)-3-fluoroprop-2-en-1-yl]-4-(5-[4-(morpholin-4-ylcarbonyl)phenyl]thiophen-2-ylmethyl)-2,4-dihydro-3H-1,2,4-triazol-3-one hydrochloride], the 50% inhibitory concentration (IC50) was 18000 nM in assay [1], 1.1 nM on recombinant human VAP-1, greater than 100000 nM in assay [2] and 470 nM in assay [3].
With `NC/C(=C\F)Cn1ncn(Cc2ccc(-c3ccc4c(c3)CC(=O)N4)s2)c1=O` [Example 69, 5-[5-(1-[(2E)-2-(aminomethyl)-3-fluoroprop-2-en-1-yl]-5-oxo-1,5-dihydro-4H-1,2,4-triazol-4-ylmethyl)thiophen-2-yl]-1,3-dihydro-2H-indol-2-one hydrochloride], the IC50 in assay [1] worked out at 1800 nM; on recombinant human VAP-1, 0.1 nM; in assay [2], 70000 nM; in assay [3], 1100 nM.
On to `NC/C(=C\F)Cn1ncn(Cc2ccc(C#Cc3cnc4c(c3)OCCN4)s2)c1=O` [Example 137, 2-[(E)-2-(aminomethyl)-3-fluoro-allyl]-4-[[5-[2-(3,4-dihydro-2H-pyrido[3,2-b][1,4]oxazin-7-yl)ethynyl]-2-thienyl]methyl]-1,2,4-triazol-3-one], for which the IC50 in assay [1] is 390 nM; at recombinant human VAP-1, 1.4 nM; in assay [2], greater than 100000 nM; in assay [3] it was 1400 nM.
Taken in the same sequence, the figures for `Cc1nn(C)cc1-c1ccc(Cn2cnn(C/C(=C/F)CN)c2=O)s1` [Example 157, 2-[(2E)-2-(aminomethyl)-3-fluoroprop-2-en-1-yl]-4-{[5-(1,3-dimethyl-1H-pyrazol-4-yl)thiophen-2-yl]methyl}-2,4-dihydro-3H-1,2,4-triazol-3-one] were 330 nM, 2.6 nM, greater than 100000 nM and 1700 nM.
Turning to `NC/C(=C\F)Cn1ncn(Cc2ccc(-c3cnc4c(c3)CCCN4)s2)c1=O` [Example 111, 2-[(E)-2-(aminomethyl)-3-fluoro-allyl]-4-[[5-(5,6,7,8-tetrahydro-1,8-naphthyridin-3-yl)-2-thienyl]methyl]-1,2,4-triazol-3-one], the half-maximal inhibitory concentration (IC50) in assay [1] was 5900 nM; at recombinant human VAP-1, 0.6 nM; in assay [2], greater than 100000 nM; in assay [3], 530 nM.
`NC/C(=C\F)Cn1ncn(Cc2ccc(-c3cccc(-c4noc(C5CC5)n4)c3)s2)c1=O` [Example 36, 2-[(2E)-2-(aminomethyl)-3-fluoroprop-2-en-1-yl]-4-(5-[3-(5-cyclopropyl-1,2,4-oxadiazol-3-yl)phenyl]thiophen-2-ylmethyl)-2,4-dihydro-3H-1,2,4-triazol-3-one hydrochloride]: the IC50 is 101 nM in assay [1], 0.7 nM on recombinant human VAP-1, greater than 100000 nM in assay [2] and 344 nM in assay [3].
Taken in the same sequence, the figures for `CN(C)c1ncc(-c2ccc(Cn3cnn(C/C(=C/F)CN)c3=O)s2)cn1` [Example 55, 2-[(2E)-2-(aminomethyl)-3-fluoroprop-2-en-1-yl]-4-(5-[2-(dimethylamino)pyrimidin-5-yl]thiophen-2-ylmethyl)-2,4-dihydro-3H-1,2,4-triazol-3-one hydrochloride] were 6400 nM, 0.5 nM, greater than 100000 nM and 180 nM.
`CN1C(=O)CCc2cc(-c3ccc4sc(Cn5cnn(C/C(=C/F)CN)c5=O)cc4c3)ccc21` [Example 211, 6-[2-({1-[(2E)-2-(aminomethyl)-3-fluoroprop-2-en-1-yl]-5-oxo-1,5-dihydro-4H-1,2,4-triazol-4-yl}methyl)-1-benzothiophen-5-yl]-1-methyl-3,4-dihydroquinolin-2(1H)-one]: the IC50 in assay [1] was 7900 nM; on recombinant human VAP-1, 1.9 nM; in assay [2] it was 49000 nM; in assay [3], 1000 nM.
